Patent US20210290680A1, “METHODS AND COMPOSITIONS FOR MODULATING CELLULAR AGING” (Dorian Therapeutics, Inc., priority 2019, published 2021)

Columns and labels:
Assay type in all cases: cell-based, human
[1] = system: CDKN2A; test: qPCR of senescence marker CDKN2A; conditions: CD19.CAR, day 15, n=4
Text: Primary T cells were activated as described (Example 3), transduced with a lentivirus encoding for either a CD19.CAR or a GD2.CAR co-expressing shUSP16 #1, shUSP16 #2 or a scrambled shRNA (Control). Fifteen days post-activation, T cells were collected and qPCR performed. TaqMan probes detecting CDKN1A, CDKN2A (FIGS. 26A and 26B) (fold change GD2.CAR (n=4): CDKN1A Control vs shUSP #1: 0.4360, p<0.0001, and Control vs shUSP16 #2: 3.036, p=0.004 respectively. Fold change CD19.CAR (n=4): CDKN2a, CDKN1A Control vs shUSP #1: 0.6906, p=0.0026; 0.7228, p=0.0297 and Control vs shUSP16 #2: 0.8385, p=0.2325; 0.7017, p=0.0021), TCF7, LEF1, and Axin-2 (FIGS. 27A and B) were analyzed in GD2.CAR and CD19.CAR-expressing cells, respectively. ACTB was used as internal control. (GD2.CAR (n=4) TCF7, LEF1 and Axin-2: Control vs shUSP #1: 1.914 p=0.0512; 1.795 p=0.0323; 3.269 p=0.15 and Control vs shUSP16 #2: 1.284 p=0.0494; 1.718 p=0.0586; 2.035p=0.235, respectively. Fold change CD19.CAR (n=4): TCF7, LEF1 and Axin-2: Control vs shUSP #1: 1.528, p=0.0277; 1.82, p=0.0449; 1.998, p=0.031 and Control vs shUSP16 #2: 1.18, p=0.2002; 1.579, p=0.0632; 1.261, p=0.2382). […]

[2] = system: CD19.CAR and GD2.CAR T cells; test: CAR-T cell proliferation (fold increase compared to control cells)
Text: Plasmids encoding for 2nd generation CAR specific for CD19 (Lenti-EF1a-CD19(FMC63)-2nd-CAR(CD28)-EGFRt) or GD2 (Lenti-EF1a-GD2(14G2a)-2nd-CAR(CD28)-EGFRt) were purchased from Creative Biolabs. The CAR containing plasmids were engineered to co-express a shRNA targeting USP16. The shRNA sequences are: shUSP16 #1 5′-[…]-3′ (SEQ ID NO: 8) and shUSP16 #2 5′-[…]-3′ (SEQ ID NO: 9). Primary T cells were activated as described (Example 3), transduced with a lentivirus encoding for either a CD19.CAR or a GD2.CAR co-expressing shUSP16 #1, shUSP16 #2 or a scrambled shRNA (Control). Cells were cultured in IL-2 and sorted between days 6-13 for EGFRt. Briefly, cells were stained with biotin EGFR antibody (R&D) and magnetically sorted with anti-biotin or streptavidin conjugated beads (Miltenyi Biotec) using the LS columns (Miltenyi Biotec). The positive population was isolated and expanded in regular TC-treated plates or in G-Rex 6 well culture plate (Wilson Wolf). The G-Rex platform was used to achieve a rapid expansion of T cells for in vitro and in vivo applications.
Primary T cells were activated as described (Example 3), transduced with a lentivirus encoding for either a CD19.CAR or a GD2.CAR co-expressing shUSP16 #1, shUSP16 #2 or a scrambled shRNA (Control). Cells were cultured in IL-2 and sorted between days 6-13 for EGFRt. Cells were plated post-sorting with a purity higher than 85% and counted every 2-4 days by Trypan Blue exclusion using Vi-CELL XR cell counter. Fifteen days post-activation both CD19.CAR and GD2.CAR T cells were collected, and qPCR was performed to verify downregulation of USP16 expression (FIG. 24) (fold change GD2.CAR (n=3): Control vs shUSP #1: 0.35, p<0.0001, and Control vs shUSP16 #2: 0.2452, p<0.0001, fold change CD19.CAR (n=4): Control vs shUSP #1: 0.2891, p<0.0001, and Control vs shUSP16 #2: 0.2566, p<0.0001). Proliferation was measured as fold increase compared to control cells at day 15 (FIG. 25).

[3] = system: NALM cells; test: CAR-T in vitro cytotoxicity assay, CD19.CAR T cells; conditions: 1:5 E:T, 72 hours, n=3
Protocol: Primary T cells were activated as described (Example 3), transduced with a lentivirus encoding for either a CD19.CAR or a GD2.CAR co-expressing shUSP16 #1, shUSP16 #2 or a scrambled shRNA (Control). Cells were cultured in IL-2 and sorted between days 6-13 for EGFRt. At day 16 cytotoxicity assays were performed. Briefly, cells were counted and 100,000 T cells (adjusted for EGFR expression) were plated at 1:5 Effector:Target (E:T) ratio. At 72 hours, the mixture of tumor cells and T cells were collected, stained for CD3-PE, CD8-BV510, CD19- or GD2-APC, EGFR-AF488 and Sytox and counted by flow cytometry (MACSQuant, Miltenyi Biotec) (FIGS. 30A and 30B). Counting beads (CountBright Absolute Counting beads, Invitrogen) were added before acquisition and absolute number was calculated as following (number of cell events/number of bead events)×(assigned bead count of the lot (beads/50 ul)/volume of sample (ul))=concentration of sample as cells/ul). NALM cells were used as target cells for CD19.CAR T cells and CHLA-55 cells were used as target for GD2.CAR T cells. Three different primary T cell cultures were tested for CD19 and GD2 CAR.

Substance	CDKN2a expression, fold change vs Control [1]	T cell expansion, fold change vs Control ([2]; CD19.CAR, day 15, n=4)	T cell expansion, fold change vs Control ([2]; GD2.CAR, day 15, n=3)	T cell number [3]	residual tumor cells (NALM) [3]
shUSP16 #2: shRNA targeting USP16, 5′-TATATCAGTTCACCCGTAAT-3′ (SEQ ID NO: 9), pSIH backbone or co-expressed in CAR plasmid	0.8385	3.036	3.036	58732	28462
shUSP16 #1: shRNA targeting USP16, 5′-GACTGTAAGACTGACAATAAA-3′ (SEQ ID NO: 8), pSIH backbone or co-expressed in CAR plasmid	0.6906	2.259	2.147	46674	29688
